Data taken from patent publication US9440980B2, “Remedy for diabetes” (EA Pharma Co., Ltd., priority 2007, dated 2016).

Columns and labels:
Gβ1γ2-Myc = biological target: T1, Gβ1γ2-Myc (Homo sapiens, UniProt P62873); test: Gβ binding ability using Gβ-expressing insect cell extract solution (PD10 method); conditions: binding strength Compound 1>Compound 3>Compound 6, FIG. 8
T1 construct: made in house; host or cells: Sf21 insect cells (baculovirus), unpurified Triton X-100 extract
Procedure: The PD10 method was carried out as follows. To a microtube were added 250 μl of an RBA buffer, 100 μl of an RBA buffer containing 0 or 500 μM of the unlabeled Compound 1, 100 μl of the above extract solution, and 50 μl of an RBA buffer containing 2.5 μM of the ^3H-labeled Compound 1 successively, and the resultant mixture was stirred and left at room temperature for 1 hour. The entire reaction solution (0.5 ml) was added to a PD10 column sufficiently substituted with the RBA buffer, 2 ml of the RBA buffer was passed through the PD10 column, and thereafter further eluate by 1.5 ml of the RBA buffer was collected as a high-molecular fraction containing the protein, 15 ml of a liquid scintillator was added thereto, and the amount of the ^3H-labeled Compound 1 contained in the high-molecular fraction was measured by a scintillation counter. The count of the sample added with the unlabeled Compound 1 at the final concentration of 100 μM was considered to correspond to the nonspecific binding, the difference between the nonspecific binding count and the count of the sample not added with the unlabeled Compound 1 was considered to correspond to the specific binding, and thus the amount of the binding protein contained in the extract solution was evaluated.
Using the frozen insect cell Sf21 expressing the Gβ1, Myc-Gγ2, and Gαi1-His prepared in Example 19 (8), 10^7 cells were melted and suspended in 1.3 ml of an RBA buffer containing 1% Triton X-100 (75 mM Tris-HCl, 12.5 mM MgCl2, 2 mM EDTA, pH 7.4). […]
The inhibitory activity against the binding of the ^3H-labeled Compound 1 to the Gβ1γ2-Myc was considered to correspond to the activity of the compounds for binding to the Gβ1γ2-Myc. Thus, the activity of each of Compounds 1, 3, and 6 for binding to the Gβ1γ2-Myc was measured using the above extract solution. The activity of the ^3H-labeled Compound 1 for binding to the protein contained in the extract solution was measured by the PD10 method described in Example 15 (1). […]

[1] = system: PI3-kinase α (p110α/p85α); test: PI3-kinase subtype activity in the presence of Gβ1γ2-Myc (PIP3 production, 32P-ATP, TLC); type: biochemical; conditions: 30 μM, FIG. 13
Procedure: The subtypes α (PI3 Kinase (p110α/p85α), active, Upstate, Product No. 14-602), β (PI3 Kinase (p110β/p85α), active, Upstate, Product No. 14-603), γ ((PI3KγHis-GST (Phosphoinositide 3-kinase p110γHis/p101GST) human, Recombinant, Sf9 insect cell, JENA Bioscience, Product No. PR-347S), and δ (PI3 Kinase (p110δ/p85α), active, Upstate, Product No. 14-604) were used as the PI3-kinase subtypes respectively. A PI3K buffer (40 mM HEPES-Na (pH 7.4), 120 mM NaCl, 1 mM EGTA, 1 mM dithiothreitol, 1 mM β glycerophosphoric acid, 10 mM MgCl2, 0.1% BSA) was used as a buffer in the following reactions.
A mixture liquid of phosphatidylethanolamine (0.256 μmol), phosphatidylserine (0.24 μmol), phosphatidylcholine (0.112 μmol), sphingomyelin (0.024 μmol), and phosphatidylinositol-[4,5]-bisphosphate (0.032 μmol) was added to a glass tube and dried by argon gas, and to this was added the PI3K buffer (0.27 ml) at ice temperature. This solution was ultrasonic-treated in ice to prepare a lipid micelle solution. […] The data were analyzed by a software of BAS2000, the analysis region was controlled such that spots of phosphatidylinositol-[3,4,5]-trisphosphate (PIP3) in the TLC lanes have the same areas, and the energy (PSL) corresponding to each radioactivity was quantified in the region.

T1 sequence (P62873 whole entry): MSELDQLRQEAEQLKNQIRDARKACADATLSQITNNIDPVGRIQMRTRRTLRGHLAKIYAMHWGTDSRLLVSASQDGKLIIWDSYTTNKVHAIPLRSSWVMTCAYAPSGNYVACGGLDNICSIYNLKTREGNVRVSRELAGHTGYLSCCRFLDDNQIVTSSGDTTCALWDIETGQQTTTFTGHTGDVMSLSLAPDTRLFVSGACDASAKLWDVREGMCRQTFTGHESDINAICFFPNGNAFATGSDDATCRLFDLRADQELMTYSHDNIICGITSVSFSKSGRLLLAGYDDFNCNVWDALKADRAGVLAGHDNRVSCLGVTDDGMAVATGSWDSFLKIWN
T1 sequence (P59768 with tags, fused parts or gaps partner limits assumed): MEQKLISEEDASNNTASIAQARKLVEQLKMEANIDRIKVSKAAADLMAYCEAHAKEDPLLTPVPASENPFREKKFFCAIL

SMILES: O=C1NCC2=C1[C@@H](c1ccccc1)N(C(=O)CO)[C@@H]1CCCC[C@H]1N2 [Compound 6]
- binding to Gβ1γ2-Myc (inhibition of 3H-labeled Compound 1 binding) (Gβ1γ2-Myc): could be bound to the Gβγ2-Myc

SMILES: O=C1NCC2=C1[C@@H](c1cccc3ccsc13)N(C(=O)CCc1ccccn1)[C@@H]1CCCC[C@H]1N2 [Compound 1]
- binding to Gβ1γ2-Myc (inhibition of 3H-labeled Compound 1 binding) (Gβ1γ2-Myc): could be bound to the Gβγ2-Myc
- effect on PI3-kinase α activity [1]: only on the PI3-kinase β
